Test results taken from paper PMC5218480 (PLoS ONE, 2017).

Test system: MV-4-11 cells
Test: Gene expression microarray analysis (Affymetrix PrimeView) and GSEA
Assay type: cell-based, human
Parameters: RFU PODN (11730768_x_at) / Fold change /veh PODN (11730768_x_at) / RFU LINC00158 (11744669_a_at) / Fold change /veh LINC00158 (11744669_a_at) / RFU DUSP10 (11751237_a_at) / Fold change /veh DUSP10 (11751237_a_at) / RFU ID3 (11757404_x_at) / Fold change /veh ID3 (11757404_x_at) / RFU PLEKHG5 (11737974_s_at) / Fold change /veh PLEKHG5 (11737974_s_at) / RFU LRRC4B (11730491_at) / Fold change /veh LRRC4B (11730491_at) / RFU GIMAP4 (11747438_a_at) / Fold change /veh GIMAP4 (11747438_a_at) / RFU KRT8 (11758183_x_at) / Fold change /veh KRT8 (11758183_x_at) / RFU CNN1 (11734310_a_at) / Fold change /veh CNN1 (11734310_a_at) / RFU VPS37D (11726825_at) / Fold change /veh VPS37D (11726825_at) / RFU C10orf10 (11716522_x_at) / Fold change /veh C10orf10 (11716522_x_at) / RFU KIR2DL2 /// KIR2DL4 /// KIR2DL5A /// KIR2DL5B /// KIR2DS1 /// KIR2DS2 /// KIR2DS3 /// KIR2DS4 /// KIR3DL3 /// KIR3DL3 /// KIR3DS1 (11738374_at) / Fold change /veh KIR2DL2 /// KIR2DL4 /// KIR2DL5A /// KIR2DL5B /// KIR2DS1 /// KIR2DS2 /// KIR2DS3 /// KIR2DS4 /// KIR3DL3 /// KIR3DL3 /// KIR3DS1 (11738374_at) / RFU C1QL1 (11718748_at) / Fold change /veh C1QL1 (11718748_at) / RFU TMPRSS4 (11747572_a_at) / Fold change /veh TMPRSS4 (11747572_a_at) / RFU HAMP (11756126_x_at) / Fold change /veh HAMP (11756126_x_at) / RFU RNFT2 (11725882_a_at) / Fold change /veh RNFT2 (11725882_a_at) / RFU NR4A2 (11747474_a_at) / Fold change /veh NR4A2 (11747474_a_at) / RFU ABCC12 (11746883_a_at) / Fold change /veh ABCC12 (11746883_a_at) / RFU TMEM136 (11760407_x_at) / Fold change /veh TMEM136 (11760407_x_at) / RFU CLDN22 /// WWC2 (11732394_at) / Fold change /veh CLDN22 /// WWC2 (11732394_at) / RFU HLA-DPB1 (11760878_x_at) / Fold change /veh HLA-DPB1 (11760878_x_at) / RFU SPINT1 (11716480_a_at) / Fold change /veh SPINT1 (11716480_a_at) / RFU GAP43 (11754022_s_at) / Fold change /veh GAP43 (11754022_s_at) / RFU A4GNT (11735810_at) / Fold change /veh A4GNT (11735810_at) / RFU PRB3 (11715151_x_at) / Fold change /veh PRB3 (11715151_x_at) / RFU TUBB4B (11761932_at) / Fold change /veh TUBB4B (11761932_at) / RFU CAPN14 (11732068_a_at) / Fold change /veh CAPN14 (11732068_a_at) / RFU TMCC2 (11721928_a_at) / Fold change /veh TMCC2 (11721928_a_at) / RFU IRGQ (11745062_a_at) / Fold change /veh IRGQ (11745062_a_at) / RFU FAM174B (11720279_a_at) / Fold change /veh FAM174B (11720279_a_at) / RFU TMPRSS4 (11748680_a_at) / Fold change /veh TMPRSS4 (11748680_a_at) / RFU FAM212B (11763350_a_at) / Fold change /veh FAM212B (11763350_a_at) / RFU PLEKHG5 (11743358_a_at) / Fold change /veh PLEKHG5 (11743358_a_at) / RFU ZSCAN30 (11745921_a_at) / Fold change /veh ZSCAN30 (11745921_a_at) / RFU CMKLR1 (11741424_a_at) / Fold change /veh CMKLR1 (11741424_a_at) / RFU LOC101060620 /// MAPK8IP1 (11723275_at) / Fold change /veh LOC101060620 /// MAPK8IP1 (11723275_at) / RFU SPTSSB (11747773_x_at) / Fold change /veh SPTSSB (11747773_x_at) / RFU PRSS12 (11739890_at) / Fold change /veh PRSS12 (11739890_at) / RFU BIN1 (11741810_x_at) / Fold change /veh BIN1 (11741810_x_at) / RFU WNT11 (11732464_a_at) / Fold change /veh WNT11 (11732464_a_at) / RFU C10orf10 (11716521_a_at) / Fold change /veh C10orf10 (11716521_a_at) / RFU C5orf56 (11738089_at) / Fold change /veh C5orf56 (11738089_at) / RFU CYB561 (11721691_x_at) / Fold change /veh CYB561 (11721691_x_at) / RFU ANKRD19P (11752326_a_at) / Fold change /veh ANKRD19P (11752326_a_at) / RFU OR2T12 /// OR2T33 /// OR2T8 (11738714_s_at) / Fold change /veh OR2T12 /// OR2T33 /// OR2T8 (11738714_s_at) / RFU VCAN (11748164_a_at) / Fold change /veh VCAN (11748164_a_at) / RFU JSRP1 (11732532_at) / Fold change /veh JSRP1 (11732532_at) / RFU KRTAP10-11 (11738290_x_at) / Fold change /veh KRTAP10-11 (11738290_x_at) / RFU MYO3A (11730013_a_at) / Fold change /veh MYO3A (11730013_a_at) / RFU EBF3 (11725865_a_at) / Fold change /veh EBF3 (11725865_a_at) / RFU CAMK2N1 (11719241_x_at) / Fold change /veh CAMK2N1 (11719241_x_at) / RFU C5orf56 (11738088_a_at) / Fold change /veh C5orf56 (11738088_a_at) / RFU OLFML3 (11715873_a_at) / Fold change /veh OLFML3 (11715873_a_at) / RFU LOC100653217 /// NTM (11731650_a_at) / Fold change /veh LOC100653217 /// NTM (11731650_a_at) / RFU MAPK11 (11762145_a_at) / Fold change /veh MAPK11 (11762145_a_at) / RFU FIZ1 (11724087_x_at) / Fold change /veh FIZ1 (11724087_x_at) / RFU OASL (11726364_x_at) / Fold change /veh OASL (11726364_x_at) / RFU SOX15 (11748057_x_at) / Fold change /veh SOX15 (11748057_x_at) / RFU CD79A (11719716_a_at) / Fold change /veh CD79A (11719716_a_at) / RFU HIST1H1D (11736915_at) / Fold change /veh HIST1H1D (11736915_at) / RFU CASKIN2 (11723855_a_at) / Fold change /veh CASKIN2 (11723855_a_at) / RFU LOC730098 (11760151_x_at) / Fold change /veh LOC730098 (11760151_x_at) / RFU OR4N2 (11742367_at) / Fold change /veh OR4N2 (11742367_at) / RFU PRRT2 (11749266_a_at) / Fold change /veh PRRT2 (11749266_a_at) / RFU SNX32 (11753110_a_at) / Fold change /veh SNX32 (11753110_a_at) / RFU CDHR5 (11726645_a_at) / Fold change /veh CDHR5 (11726645_a_at) / RFU RCAN1 (11760418_a_at) / Fold change /veh RCAN1 (11760418_a_at) / RFU FAM167A (11723789_a_at) / Fold change /veh FAM167A (11723789_a_at) / RFU FAM26E (11764081_at) / Fold change /veh FAM26E (11764081_at) / RFU ISYNA1 (11749810_s_at) / Fold change /veh ISYNA1 (11749810_s_at) / RFU ACY1 (11761880_at) / Fold change /veh ACY1 (11761880_at) / RFU 11764098_at / Fold change /veh 11764098_at / RFU SAMD14 (11745864_x_at) / Fold change /veh SAMD14 (11745864_x_at) / RFU NPB (11741838_a_at) / Fold change /veh NPB (11741838_a_at) / RFU TMPRSS6 (11731388_a_at) / Fold change /veh TMPRSS6 (11731388_a_at) / RFU KRTAP10-2 (11738614_at) / Fold change /veh KRTAP10-2 (11738614_at) / RFU ARHGAP8 /// PRR5-ARHGAP8 (11727945_x_at) / Fold change /veh ARHGAP8 /// PRR5-ARHGAP8 (11727945_x_at) / RFU KRTAP5-7 /// NADSYN1 (11734609_at) / Fold change /veh KRTAP5-7 /// NADSYN1 (11734609_at) / RFU RASL12 (11751679_a_at) / Fold change /veh RASL12 (11751679_a_at) / RFU CDKN2B (11736163_a_at) / Fold change /veh CDKN2B (11736163_a_at) / RFU PRF1 (11729649_at) / Fold change /veh PRF1 (11729649_at) / RFU, ZNF638 /// ZNF638-IT1 / Fold change vs veh, ZNF638 /// ZNF638-IT1 / RFU, PANK3 / Fold change vs veh, PANK3 / RFU, SH3YL1 / Fold change vs veh, SH3YL1 / RFU, ZEB2 / Fold change vs veh, ZEB2 / RFU, NRIP1 / Fold change vs veh, NRIP1 / RFU, PTTG1IP / Fold change vs veh, PTTG1IP / RFU, CAPN2 / Fold change vs veh, CAPN2 / RFU, MED14 / Fold change vs veh, MED14 / RFU, SNORA58 / Fold change vs veh, SNORA58 / RFU, C1orf63 / Fold change vs veh, C1orf63 / RFU, LRRFIP1 / Fold change vs veh, LRRFIP1 / RFU, NDUFAF7 / Fold change vs veh, NDUFAF7 / RFU, SLC12A2 / Fold change vs veh, SLC12A2 / RFU, IBTK / Fold change vs veh, IBTK / RFU, ESF1 / Fold change vs veh, ESF1 / Fold change vs veh, TMEM50B / RFU, TAOK1 / Fold change vs veh, TAOK1 / RFU, ACBD3 / Fold change vs veh, ACBD3 / RFU, TMA16 / Fold change vs veh, TMA16 / RFU, RWDD3 / Fold change vs veh, RWDD3 / RFU, BCAT1 / Fold change vs veh, BCAT1 / RFU, EDEM3 / Fold change vs veh, EDEM3 / RFU, TMEM33 / Fold change vs veh, TMEM33 / RFU, WDR75 / Fold change vs veh, WDR75 / RFU, AHCTF1 / Fold change vs veh, AHCTF1 / RFU, TFRC / Fold change vs veh, TFRC / RFU, ZDHHC17 / Fold change vs veh, ZDHHC17 / RFU, NOM1 / Fold change vs veh, NOM1 / RFU, ARL8B / Fold change vs veh, ARL8B / RFU, ZBTB11 / Fold change vs veh, ZBTB11 / RFU, TAMM41 / Fold change vs veh, TAMM41 / RFU, KIAA1704 /// LOC100996395 / Fold change vs veh, KIAA1704 /// LOC100996395 / RFU, ING1 / Fold change vs veh, ING1 / RFU, TRMT61B / Fold change vs veh, TRMT61B / RFU, FUBP3 / Fold change vs veh, FUBP3 / RFU, TP53 / Fold change vs veh, TP53 / RFU, TNKS2 / Fold change vs veh, TNKS2 / RFU, ZFP14 / Fold change vs veh, ZFP14 / RFU, ACTR2 / Fold change vs veh, ACTR2 / RFU, PPP3R1 / Fold change vs veh, PPP3R1 / RFU, PIK3R1 / Fold change vs veh, PIK3R1 / RFU, HNRNPA1 / Fold change vs veh, HNRNPA1 / RFU, RNF170 / Fold change vs veh, RNF170 / RFU, ZNF28 / Fold change vs veh, ZNF28 / RFU, RNGTT / Fold change vs veh, RNGTT / RFU, OGT / Fold change vs veh, OGT / RFU, BRD1 / Fold change vs veh, BRD1 / RFU, MARS / Fold change vs veh, MARS / RFU, ZNF655 / Fold change vs veh, ZNF655 / RFU, FAHD1 / Fold change vs veh, FAHD1 / RFU, BDP1 / Fold change vs veh, BDP1 / RFU, LRRCC1 / Fold change vs veh, LRRCC1 / RFU, ARID1A / Fold change vs veh, ARID1A / RFU, ZNF146 / Fold change vs veh, ZNF146 / RFU, ZNF330 / Fold change vs veh, ZNF330 / RFU, GPN3 / Fold change vs veh, GPN3 / RFU, C9orf123 / Fold change vs veh, C9orf123 / RFU, N4BP2L2 / Fold change vs veh, N4BP2L2 / RFU, ARFIP1 / Fold change vs veh, ARFIP1 / RFU, FAM179B / Fold change vs veh, FAM179B / RFU, BCL10 / Fold change vs veh, BCL10 / RFU, UHRF1BP1L / Fold change vs veh, UHRF1BP1L / RFU, BET1 / Fold change vs veh, BET1 / RFU, CNOT2 / Fold change vs veh, CNOT2 / RFU, ZNF268 / Fold change vs veh, ZNF268 / Fold change vs veh, ZNF507 / RFU, DGCR2 / Fold change vs veh, DGCR2 / RFU, WDSUB1 / Fold change vs veh, WDSUB1 / Fold change vs veh, HSP90B1 /// MIR3652 / RFU, ADSS / Fold change vs veh, ADSS / RFU, GK / Fold change vs veh, GK / RFU, ZNF148 / Fold change vs veh, ZNF148 / RFU, TAF9 / Fold change vs veh, TAF9 / RFU, SLC1A5 / Fold change vs veh, SLC1A5 / RFU, SLMO2 / Fold change vs veh, SLMO2 / RFU, ABCC4 / Fold change vs veh, ABCC4 / RFU, LOC101060439 /// RAP1B / Fold change vs veh, LOC101060439 /// RAP1B / RFU, RFX7 / Fold change vs veh, RFX7 / RFU, GTPBP10 / Fold change vs veh, GTPBP10 / RFU, CNEP1R1 / Fold change vs veh, CNEP1R1 / RFU, BIVM-ERCC5 /// ERCC5 / Fold change vs veh, BIVM-ERCC5 /// ERCC5 / RFU, ILF3 / Fold change vs veh, ILF3 / RFU 11762660_at / Fold change /veh 11762660_at / RFU VCAN (11757783_s_at) / Fold change /veh VCAN (11757783_s_at) / RFU DDX43 (11728927_at) / Fold change /veh DDX43 (11728927_at) / RFU KRT8 (11758188_x_at) / Fold change /veh KRT8 (11758188_x_at) / RFU NKD1 (11759106_at) / Fold change /veh NKD1 (11759106_at) / RFU SRD5A1 (11742802_a_at) / Fold change /veh SRD5A1 (11742802_a_at) / RFU TPSAB1 /// TPSB2 (11721975_s_at) / Fold change /veh TPSAB1 /// TPSB2 (11721975_s_at) / RFU GSTM3 (11746129_a_at) / Fold change /veh GSTM3 (11746129_a_at) / RFU IL23R (11737362_x_at) / Fold change /veh IL23R (11737362_x_at) / RFU TMEM51 (11727254_a_at) / Fold change /veh TMEM51 (11727254_a_at) / RFU PIWIL2 (11732686_x_at) / Fold change /veh PIWIL2 (11732686_x_at) / RFU ORM1 (11744905_x_at) / Fold change /veh ORM1 (11744905_x_at) / RFU CCDC152 (11743942_at) / Fold change /veh CCDC152 (11743942_at) / RFU ECM1 (11717891_a_at) / Fold change /veh ECM1 (11717891_a_at) / RFU IL23R (11748794_a_at) / Fold change /veh IL23R (11748794_a_at) / RFU TNFAIP8L3 (11732012_x_at) / Fold change /veh TNFAIP8L3 (11732012_x_at) / RFU MBOAT4 (11741988_at) / Fold change /veh MBOAT4 (11741988_at) / RFU 11764193_at / Fold change /veh 11764193_at / RFU TMEM53 (11763286_at) / Fold change /veh TMEM53 (11763286_at) / RFU MAGEB2 (11727129_at) / Fold change /veh MAGEB2 (11727129_at) / RFU TMEM200A (11744735_a_at) / Fold change /veh TMEM200A (11744735_a_at) / RFU CCDC152 (11751479_a_at) / Fold change /veh CCDC152 (11751479_a_at) / RFU FAM211A (11726209_a_at) / Fold change /veh FAM211A (11726209_a_at) / RFU RGS16 (11746705_a_at) / Fold change /veh RGS16 (11746705_a_at) / RFU VCAN (11755009_s_at) / Fold change /veh VCAN (11755009_s_at) / RFU RHOB (11743442_s_at) / Fold change /veh RHOB (11743442_s_at) / RFU RGS16 (11720943_a_at) / Fold change /veh RGS16 (11720943_a_at) / RFU RGS16 (11720944_at) / Fold change /veh RGS16 (11720944_at) / RFU, VPS4B / Fold change vs veh, VPS4B / RFU, CREB1 / Fold change vs veh, CREB1 / RFU, DNAJC13 / Fold change vs veh, DNAJC13 / RFU, GNAQ / Fold change vs veh, GNAQ / RFU, CDK5R1 / Fold change vs veh, CDK5R1 / RFU, ZRANB3 / Fold change vs veh, ZRANB3 / RFU, CUL4A / Fold change vs veh, CUL4A / RFU, CCNY / Fold change vs veh, CCNY / RFU, UFL1 / Fold change vs veh, UFL1 / RFU, COG3 / Fold change vs veh, COG3 / RFU, DIAPH2 / Fold change vs veh, DIAPH2 / RFU, SKA2 / Fold change vs veh, SKA2 / RFU, AFF3 / Fold change vs veh, AFF3 / RFU, LMF1 / Fold change vs veh, LMF1 / RFU, IPO11 / Fold change vs veh, IPO11 / RFU, DFFB / Fold change vs veh, DFFB / RFU, FOXP1 / Fold change vs veh, FOXP1 / RFU, CARD8 / Fold change vs veh, CARD8 / RFU, STRN3 / Fold change vs veh, STRN3 / RFU, ADK / Fold change vs veh, ADK / RFU, RASSF2 / Fold change vs veh, RASSF2 / RFU, WIPF1 / Fold change vs veh, WIPF1 / RFU, LARP1B / Fold change vs veh, LARP1B / RFU, RASA1 / Fold change vs veh, RASA1 / RFU, RB1 / Fold change vs veh, RB1 / RFU, PPFIA1 / Fold change vs veh, PPFIA1 / RFU, MAT2A / Fold change vs veh, MAT2A / RFU, CCT5 / Fold change vs veh, CCT5 / RFU, WDR92 / Fold change vs veh, WDR92 / RFU, CUX1 / Fold change vs veh, CUX1 / RFU, TTC7A / Fold change vs veh, TTC7A / RFU, TMEM135 / Fold change vs veh, TMEM135 / RFU, DEPTOR / Fold change vs veh, DEPTOR / RFU, CPM / Fold change vs veh, CPM / RFU, DNAJB6 / Fold change vs veh, DNAJB6 / RFU, CACNA2D3 / Fold change vs veh, CACNA2D3 / RFU, DTX4 / Fold change vs veh, DTX4 / RFU, TFCP2 / Fold change vs veh, TFCP2 / RFU, GMCL1 /// GMCL1P1 / Fold change vs veh, GMCL1 /// GMCL1P1 / RFU, AEBP2 / Fold change vs veh, AEBP2 / RFU, SNHG1 /// SNORD22 /// SNORD25 /// SNORD26 /// SNORD27 /// SNORD28 /// SNORD29 /// SNORD31 / Fold change vs veh, SNHG1 /// SNORD22 /// SNORD25 /// SNORD26 /// SNORD27 /// SNORD28 /// SNORD29 /// SNORD31 / Fold change (Aza/veh), C12orf56 (ProbeSet 11735607_a_at) / Fold change (ACY-1035/veh), C12orf56 (ProbeSet 11735607_a_at) / Fold change (Aza/veh), FGFR1OP (ProbeSet 11751329_s_at) / Fold change (ACY-1035/veh), FGFR1OP (ProbeSet 11751329_s_at) / Fold change (Aza/veh), VPS36 (ProbeSet 11739960_a_at) / Fold change (ACY-1035/veh), VPS36 (ProbeSet 11739960_a_at) / RFU SYPL1 (11715823_x_at) / Fold change /veh SYPL1 (11715823_x_at) / RFU IGFBP7 (11715501_s_at) / Fold change /veh IGFBP7 (11715501_s_at) / RFU REEP3 (11722064_at) / Fold change /veh REEP3 (11722064_at) / RFU IGLL1 (11728026_x_at) / Fold change /veh IGLL1 (11728026_x_at): dose or concentration left out as unconfirmed
Conditions: MV-4-11 cells, 48 hours

For `Nc1ncn([C@@H]2O[C@H](CO)[C@@H](O)[C@H]2O)c(=O)n1` [azacitidine], the “Fold change /veh ACY1 (11761880_at)” value was 1.09.
